Read-outs that look alike come from different tables or passages of the source.
Test system: G. Stearothermophilus
Method: Tests were conducted in a 36 m^3 room without carpet (i.e., with tiled floor) and also in a 110 m^3 room with wall-to-wall carpet and configured to simulate a larger room with an attached bathroom with a door opening. Biological indicator (BI) test disks inoculated with 4-log, 5-log and 6-log populations of G. Stearothermophilus prepared by Mesa Labs were used.
BI test disks were placed at various locations within the room and doors and windows and other ventilation to the room was closed. Room temperature was not intentionally controlled, but was maintained at between about 22° C. and 26° C. The test area was pre-conditioned to a relative humidity of about 50%. A predetermined amount of biocide, a 35% hydrogen peroxide vapor, was rapidly injected into the room, with the rate of injection being about 50 g per minute or producing about 17.5 g of HP vapor per minute. The “inactivation time” or time from the initiation of the biocide injection through the residence time was a total of about 10 minutes. The room was then aerated until the concentration of biocide dropped to about 1 ppm. The overall cycle time was then calculated as the time for biocide injection, biocide contact or inactivation time, and the aeration time.

OO [35% HP solution, hydrogen peroxide]
Kill Efficiency (Test 3: 36 m^3 room, injected mass 2.4 g/m^3, HP mass 86.4 g, injection time 12.7 min, injection rate 6.8 g/min (0.19 g/min/m3) of HP): 5-log | Kill Efficiency (Test 4: 36 m^3 room, injected mass 2.4 g/m^3, HP mass 86.4 g, injection time 8.3 min, injection rate 10.4 g/min (0.29 g/min/m3) of HP): 6-log | Kill Efficiency (Test 7: 36 m^3 room, injected mass 2 g/m^3, HP mass 72 g, injection time 12 min, injection rate 6.0 g/min (0.17 g/min/m3) of HP): 5-log | Kill Efficiency (Test 8: 36 m^3 room, injected mass 2 g/m^3, HP mass 72 g, injection time 6.5 min, injection rate 11.1 g/min (0.31 g/min/m3) of HP): 6-log | Kill Efficiency (Test 9: 36 m^3 room, injected mass 2 g/m^3, HP mass 72.7 g, injection time 9.6 min, injection rate 7.6 g/min (0.21 g/min/m3) of HP): 5-log | Kill Efficiency (Test 10: 36 m^3 room, injected mass 2 g/m^3, HP mass 73.1 g, injection time 6.5 min, injection rate 11.2 g/min (0.31 g/min/m3) of HP): 6-log | Kill Efficiency (Test 11: 36 m^3 room, injected mass 2.2 g/m^3, HP mass 79.6 g, injection time 13 min, injection rate 6.1 g/min (0.17 g/min/m3) of HP): 5-log | Kill Efficiency (Test 12: 36 m^3 room, injected mass 2.1 g/m^3, HP mass 74.9 g, injection time 4.3 min, injection rate 17.4 g/min (0.48 g/min/m3) of HP): 6-log | Kill Efficiency (Test A: 36-m^3 room, tile, injected mass 0.6 g/m^3, HP mass 22 g, injection rate 11.4 g/min, injection time 1.8 min, residence time 8.2 min): 4-log | Kill Efficiency (Test B: 36-m^3 room, tile, injected mass 0.7 g/m^3, HP mass 26 g, injection rate 11.0 g/min, injection time 2.4 min, residence time 7.6 min): 5-log | Kill Efficiency (Test C: 36-m^3 room, tile, injected mass 1.7 g/m^3, HP mass 59 g, injection rate 12.3 g/min, injection time 4.8 min, residence time 5.2 min): 6-log | Kill Efficiency (Test D: 100-m^3 room, carpet, second doorway with non-line-of-sight BI, injected mass 0.8 g/m^3, HP mass 91 g, injection rate 13.0 g/min, injection time 7.0 min, residence time 3.0 min): 5-log | Kill Efficiency (Test E: 100-m^3 room, carpet, second doorway with non-line-of-sight BI, injected mass 1.8 g/m^3, HP mass 201 g, injection rate 21.1 g/min, injection time 9.5 min, residence time 0.5 min): 6-log
